Measurements from PubChem BioAssay AID1745844 (Carcinogenic Potency Database (CPDB), 2022).
The source made the active and inactive calls. No rule for the calls is given here.

System: rodent lifetime carcinogenesis bioassay, tumor incidence TD50
Experiment: chronic cancer bioassays in animals – CPDB, compiled studies (AID 1745844)

`[Cl][Cd][Cl]` was tested, and the carcinogen call (hamster, strain Syrian Golden, females, inhaled, site: lung, lesion: one or several types, types not named, dosed 60 weeks, study length 76 weeks) was “negative (inactive)”, the carcinogen call (hamster, strain Syrian Golden, females, inhaled, site: lung, lesion: one or several types, types not named, dosed 64 weeks, study length 76 weeks) was “negative (inactive)” and the carcinogen call (hamster, strain Syrian Golden, males, inhaled, site: lung, lesion: one or several types, types not named, dosed 60 weeks, study length 102 weeks) was “negative (inactive)”. For the same compound, the carcinogen call (hamster, strain Syrian Golden, males, inhaled, site: lung, lesion: one or several types, types not named, dosed 64 weeks, study length 113 weeks) was “negative (inactive)”, the carcinogen call (mouse, strain NMRI, females, inhaled, site: lung, lesion: adenocarcinoma, dosed 42 weeks, study length 82 weeks) was “negative (inactive)” and the carcinogen call (mouse, strain NMRI, females, inhaled, site: lung, lesion: adenocarcinoma, dosed 69 weeks, study length 89 weeks) was “negative (inactive)”. For the same compound, the carcinogen call (mouse, strain NMRI, females, inhaled, site: lung, lesion: adenoma, dosed 42 weeks, study length 82 weeks) was “negative (inactive)”, the carcinogen call (mouse, strain NMRI, females, inhaled, site: lung, lesion: adenoma, dosed 69 weeks, study length 89 weeks) was “negative (inactive)” and the carcinogen call (mouse, strain NMRI, females, inhaled, site: lung, lesion: several types, types named in the paper, dosed 42 weeks, study length 82 weeks) was “negative (inactive)”. For the same compound, the carcinogen call (mouse, strain NMRI, females, inhaled, site: lung, lesion: several types, types named in the paper, dosed 69 weeks, study length 89 weeks) was “negative (inactive)”, the carcinogen call (rat, strain BOR:WISW (Wistar), females, in feed, site: kidney, lesion: one or several types, types not named, dosed 72 weeks, study length 72 weeks) was “negative (inactive)” and the carcinogen call (rat, strain BOR:WISW (Wistar), males, in feed, site: kidney, lesion: one or several types, types not named, dosed 72 weeks, study length 72 weeks) was “negative (inactive)”. It also gave a TD50 (rat, strain NBL/Cr, males, in drinking water, site: adrenal gland, lesion: pheochromocytoma, benign/malignant, dosed 102 weeks, study length 102 weeks) of 686 mg/kg/day, a TD50 (rat, strain NBL/Cr, males, in drinking water, site: kidney/pelvis, lesion: transitional-cell carcinoma, dosed 102 weeks, study length 102 weeks) of 584 mg/kg/day and a TD50 (rat, strain NBL/Cr, males, in drinking water, site: kidney, lesion: lipoma, dosed 102 weeks, study length 102 weeks) of 584 mg/kg/day. The TD50 (rat, strain NBL/Cr, males, in drinking water, site: kidney, lesion: malignant mesenchymal tumor, dosed 102 weeks, study length 102 weeks) was 193 mg/kg/day, the TD50 (rat, strain NBL/Cr, males, in drinking water, site: kidney, lesion: several types, types named in the paper, dosed 102 weeks, study length 102 weeks) was 114 mg/kg/day and the TD50 (rat, strain Wistar W.74, females, in feed, site: any site (literature study), lesion: benign tumor, dosed 104 weeks, study length 105 weeks) was 44 mg/kg/day (inactive). The TD50 (rat, strain Wistar W.74, females, in feed, site: any site (literature study), lesion: malignant tumor, dosed 104 weeks, study length 105 weeks) was 124 mg/kg/day (inactive), the TD50 (rat, strain Wistar W.74, females, in feed, site: any site (literature study), lesion: several types, types named in the paper, dosed 104 weeks, study length 105 weeks) was 21.6 mg/kg/day (inactive) and the carcinogen call (rat, strain Wistar W.74, females, in feed, site: liver, lesion: hepatoma, dosed 104 weeks, study length 105 weeks) was “negative (inactive)”. The TD50 (rat, strain Wistar W.74, males, in feed, site: adrenal gland, lesion: pheochromocytoma, dosed 104 weeks, study length 105 weeks) was 1.33 mg/kg/day (inactive), the carcinogen call (rat, strain Wistar W.74, males, in feed, site: any site (literature study), lesion: benign tumor, dosed 104 weeks, study length 105 weeks) was “negative (inactive)” and the TD50 (rat, strain Wistar W.74, males, in feed, site: any site (literature study), lesion: malignant tumor, dosed 104 weeks, study length 105 weeks) was 47.4 mg/kg/day (inactive). The carcinogen call (rat, strain Wistar W.74, males, in feed, site: any site (literature study), lesion: several types, types named in the paper, dosed 104 weeks, study length 105 weeks) was “negative (inactive)”, the carcinogen call (rat, strain Wistar W.74, males, in feed, site: liver, lesion: hepatoma, dosed 104 weeks, study length 105 weeks) was “negative (inactive)” and the TD50 (rat, strain Wistar, females, inhaled, site: lung, lesion: adenocarcinoma, dosed 26 weeks, study length 126 weeks) was 0.206 mg/kg/day. It also gave a TD50 (rat, strain Wistar, females, inhaled, site: lung, lesion: adenocarcinoma, dosed 78 weeks, study length 134 weeks) of 0.0253 mg/kg/day, a TD50 (rat, strain Wistar, females, inhaled, site: lung, lesion: adenosquamous carcinoma, dosed 78 weeks, study length 134 weeks) of 0.106 mg/kg/day and a TD50 (rat, strain Wistar, females, inhaled, site: lung, lesion: alveolar/bronchiolar adenoma, dosed 78 weeks, study length 134 weeks) of 0.0495 mg/kg/day. The TD50 (rat, strain Wistar, females, inhaled, site: lung, lesion: several types, types named in the paper, dosed 26 weeks, study length 126 weeks) was 0.0645 mg/kg/day, the TD50 (rat, strain Wistar, females, inhaled, site: lung, lesion: several types, types named in the paper, dosed 78 weeks, study length 134 weeks) was 0.00971 mg/kg/day and the TD50 (rat, strain Wistar, females, inhaled, site: lung, lesion: squamous-cell tumor, dosed 26 weeks, study length 126 weeks) was 0.0998 mg/kg/day. For the same compound, the carcinogen call (rat, strain Wistar, males, in feed, site: all sites, lesion: lymphocytic leukemia, dosed 77 weeks, study length 77 weeks) was “positive”, the TD50 (rat, strain Wistar, males, in feed, site: prostate, lesion: adenoma, dosed 77 weeks, study length 77 weeks) was 56.9 mg/kg/day and the TD50 (rat, strain Wistar, males, in feed, site: testis, lesion: interstitial-cell tumor, benign, dosed 77 weeks, study length 77 weeks) was 31.6 mg/kg/day. For the same compound, the TD50 (rat, strain Wistar, males, inhaled, site: adrenal gland, lesion: pheochromocytoma, benign/malignant, dosed 78 weeks, study length 134 weeks) was 0.591 mg/kg/day, the TD50 (rat, strain Wistar, males, inhaled, site: lung, lesion: adenocarcinoma, dosed 26 weeks, study length 130 weeks) was 0.0294 mg/kg/day and the TD50 (rat, strain Wistar, males, inhaled, site: lung, lesion: adenocarcinoma, dosed 78 weeks, study length 130 weeks) was 0.00924 mg/kg/day. For the same compound, the TD50 (rat, strain Wistar, males, inhaled, site: lung, lesion: adenocarcinoma, dosed 78 weeks, study length 134 weeks) was 0.022 mg/kg/day, the TD50 (rat, strain Wistar, males, inhaled, site: lung, lesion: adenoma, dosed 78 weeks, study length 134 weeks) was 0.563 mg/kg/day and the TD50 (rat, strain Wistar, males, inhaled, site: lung, lesion: adenosquamous carcinoma, dosed 78 weeks, study length 130 weeks) was 0.165 mg/kg/day. For the same compound, the TD50 (rat, strain Wistar, males, inhaled, site: lung, lesion: alveolar/bronchiolar adenoma, dosed 26 weeks, study length 130 weeks) was 0.0521 mg/kg/day, the TD50 (rat, strain Wistar, males, inhaled, site: lung, lesion: alveolar/bronchiolar adenoma, dosed 78 weeks, study length 130 weeks) was 0.0804 mg/kg/day and the TD50 (rat, strain Wistar, males, inhaled, site: lung, lesion: carcinoma, dosed 78 weeks, study length 134 weeks) was 0.0127 mg/kg/day. The TD50 (rat, strain Wistar, males, inhaled, site: lung, lesion: epidermoid carcinoma, dosed 78 weeks, study length 134 weeks) was 0.0588 mg/kg/day, the TD50 (rat, strain Wistar, males, inhaled, site: lung, lesion: muco-epidermoid carcinoma, dosed 78 weeks, study length 134 weeks) was 0.315 mg/kg/day and the TD50 (rat, strain Wistar, males, inhaled, site: lung, lesion: several types, types named in the paper, dosed 26 weeks, study length 130 weeks) was 0.0106 mg/kg/day. It also gave a TD50 (rat, strain Wistar, males, inhaled, site: lung, lesion: several types, types named in the paper, dosed 78 weeks, study length 130 weeks) of 0.00611 mg/kg/day and a TD50 (rat, strain Wistar, males, inhaled, site: lung, lesion: squamous-cell tumor, dosed 26 weeks, study length 130 weeks) of 0.0521 mg/kg/day.

For `S=c1nc[nH]c2nc[nH]c12`, the TD50 (rat, strain BR 46, males, i.v., site: any site (literature study), lesion: several types, types named in the paper, dosed 52 weeks, study length 104 weeks) was 58.1 mg/kg/day (inactive), the TD50 (rat, strain F344/DuCrj, females, in feed, site: adrenal gland, lesion: pheochromocytoma, dosed 104 weeks, study length 113 weeks) was 22.5 mg/kg/day and the TD50 (rat, strain F344/DuCrj, females, in feed, site: any site (literature study), lesion: malignant tumor, dosed 104 weeks, study length 113 weeks) was 10.3 mg/kg/day. It also gave a TD50 (rat, strain F344/DuCrj, females, in feed, site: any site (literature study), lesion: several types, types named in the paper, dosed 104 weeks, study length 113 weeks) of 4.74 mg/kg/day, a TD50 (rat, strain F344/DuCrj, females, in feed, site: central nervous system, lesion: several types, types named in the paper, dosed 104 weeks, study length 113 weeks) of 34.1 mg/kg/day and a TD50 (rat, strain F344/DuCrj, females, in feed, site: liver, lesion: hepatocellular carcinoma, dosed 104 weeks, study length 113 weeks) of 139 mg/kg/day. It also gave a TD50 (rat, strain F344/DuCrj, females, in feed, site: uterus, lesion: adenocarcinoma, dosed 104 weeks, study length 113 weeks) of 34.1 mg/kg/day.

`C=C(F)F` was tested, and the TD50 (rat, strain Sprague-Dawley, females, by gavage, site: fat, lesion: lipoma, dosed 52 weeks, study length 141 weeks) was 60.3 mg/kg/day, the TD50 (rat, strain Sprague-Dawley, females, by gavage, site: fat, lesion: liposarcoma, dosed 52 weeks, study length 141 weeks) was 122 mg/kg/day and the TD50 (rat, strain Sprague-Dawley, males, by gavage, site: fat, lesion: liposarcoma, dosed 52 weeks, study length 141 weeks) was 38.8 mg/kg/day.

For `O=S(=O)(O)c1ccc(N=Nc2cc(S(=O)(=O)O)c3ccccc3c2O)c2ccccc12`, the carcinogen call (mouse, strain ASH-CS1, females, in feed, site: liver, lesion: one or several types, types not named, dosed 80 weeks, study length 80 weeks) was “negative (inactive)”, the TD50 (mouse, strain ASH-CS1, females, in feed, site: lung, lesion: papillary adenoma, dosed 80 weeks, study length 80 weeks) was 32900 mg/kg/day (inactive) and the carcinogen call (mouse, strain ASH-CS1, males, in feed, site: liver, lesion: adenoma, dosed 80 weeks, study length 80 weeks) was “negative (inactive)”. For the same compound, the carcinogen call (mouse, strain ASH-CS1, males, in feed, site: liver, lesion: nodular hyperplasia, dosed 80 weeks, study length 80 weeks) was “negative (inactive)”, the TD50 (mouse, strain ASH-CS1, males, in feed, site: lung, lesion: papillary adenoma, dosed 80 weeks, study length 80 weeks) was 12300 mg/kg/day (inactive) and the carcinogen call (mouse, strain B6C3F1, females, in feed, site: any site (literature study), lesion: several types, types named in the paper, dosed 103 weeks, study length 104 weeks) was “negative (inactive)”. For the same compound, the carcinogen call (mouse, strain B6C3F1, males, in feed, site: any site (literature study), lesion: several types, types named in the paper, dosed 103 weeks, study length 103 weeks) was “negative (inactive)”, the TD50 (rat, strain Fischer 344, females, in feed, site: any site (literature study), lesion: several types, types named in the paper, dosed 103 weeks, study length 104 weeks) was 7180 mg/kg/day and the TD50 (rat, strain Fischer 344, females, in feed, site: clitoral gland, lesion: sebaceous adenoma, dosed 103 weeks, study length 104 weeks) was 16400 mg/kg/day. For the same compound, the TD50 (rat, strain Fischer 344, females, in feed, site: uterus, lesion: endometrial stromal polyp, dosed 103 weeks, study length 104 weeks) was 3270 mg/kg/day (inactive), the TD50 (rat, strain Fischer 344, males, in feed, site: any site (literature study), lesion: several types, types named in the paper, dosed 103 weeks, study length 104 weeks) was 1860 mg/kg/day (inactive) and the TD50 (rat, strain Fischer 344, males, in feed, site: liver, lesion: hepatocellular adenoma + hepatocellular carcinoma + neoplastic nodule, dosed 103 weeks, study length 104 weeks) was 9850 mg/kg/day.
